In patent US5798375A, “Treatment of arteriosclerosis and xanthoma” (Sankyo Company, Limited, priority 1995, dated 1998):

Assays:
diabetic animal model = details: in vivo in a diabetic animal model; cited from earlier work
WHHL rabbits [1] = test: Example 2: aortic cholesterol content; format: in vivo, Male WHHL rabbits
Experimental: (§1) Each test compound was administered for eight months to the rabbits in the form of an aqueous suspension (0.5% carboxymethylcellulose added). In the control group, a 0.5% carboxymethylcellulose solution only was administered.
The aortic cholesterol content was measured The tunica media and tunica intima at the aortic arch and at the thoracic and abdominal aorta were peeled away with tweezers and cut into pieces. The pieces were extracted with a 2:1 by volume mixture of chloroform and methanol.
The chloroform phase was separated and evaporated to dryness and the residue was dissolved in isopropanol. The total cholesterol and the free cholesterol were measured by a conventional enzymatic method.
Data are expressed by the mean plus or minus standard error (mg/g tissue). The values in parentheses indicate the percentage against the control. A significant difference against the control group was observed by the unpaired student t-test: […]

WHHL rabbits [2] = test: Example 2: percentage area covered by lesions, aortic arch and whole aorta; format: in vivo, Male WHHL rabbits; design: Lesion Area, Aortic Arch, percentage against the control group / Lesion Area, Total Aorta, percentage against the control group: concentration or dose not given beside the values; details: oral, eight months
Experimental: as §1
The values actually measured are represented by the mean value plus or minus standard error. The numbers in parentheses represent the percentage lesion area against the control group.
*p<0.05, **p<0.01; significant difference against the control group under the [Mann-Whitney's U-Test A significant difference (p<0.05) was observed between Groups B and F, between Groups C and E and between Groups D and F at the aortic arch, and between Groups C and E over the total aorta.

[3] = Example 2: serum cholesterol in WHHL rabbits; format: in vivo, Male WHHL rabbits; details: Groups C and D (pioglitazone 20 mg/kg; Compound A 10 mg/kg)
Experimental: as §1

WHHL rabbits [4] = test: Example 2: average thickening of intima in aorta; format: in vivo, Male WHHL rabbits; design: Average thickening of intima, Aortic Arch, percentage against the control group / Average thickening of intima, Total Aorta, percentage against the control group: concentration or dose not given beside the values
Experimental: as §1
The values actually measured are represented as the mean value plus or minus a standard error (μm). The numbers in parentheses represent the percentage intimal thickening against the control group. A significant difference was observed between Groups D and F at the aortic arch, and between Groups C and E and between Groups D and F over the total aorta (p<0.05) under the Mann-Whitney's U-Test.
The average thickening of the intima is calculated by the cross-sectional area of the aortic tunica intima one section from the arch and two sections from the thoracic and abdominal portions, divided by the length of the tunica media.

WHHL rabbits [5] = test: Example 2: incidence and degree of xanthoma of the four legs; format: in vivo, Male WHHL rabbits; design: Frequency of massive xanthoma: unit not given here
Experimental: as §1
The incidence and the degree of xanthoma of the four legs were measured.

[6] = test system: Male New Zealand white rabbits; test: Example 3: regression of established atherosclerotic lesions in the cholesterol-fed rabbit model; format: in vivo
Experimental: The rabbits were grouped randomly (3-9 animals per group) and the test samples were administered orally for two months, while they were fed with a normolipidaemic diet. […] The results are shown in terms of the percentage of lesion area in the thoracic aorta.

[7] = oral, eight months, control 100 (14/14), *p < 0.05, **p < 0.01 vs control

CN(CCOc1ccc(CC2SC(=O)NC2=O)cc1)c1ccccn1 (stereo not shown) [BRL-49653, 5-{4-[2-methyl-2-(pyridin-2-ylamino)ethoxy]benzyl}-2,4-thiazolidinedione]
potency higher than that of troglitazone (diabetic animal model): about 100 times

CC(=NOCCOc1ccc(CC2SC(=O)NC2=O)cc1)c1ccc(-c2ccccn2)cc1 (stereo not shown) [Compound A, 5-(4-{2-[1-(4-2'-pyridyl-phenyl)ethylideneaminooxy]ethoxy}benzyl)thiazolidine-2,4-dione]
Cholesterol level of Thoracic and Abdominal Aorta, Esterified (WHHL rabbits [1]; mean ± standard error, control 5.3 ± 1.7): 4.9 ± 0.9 mg/g tissue | Cholesterol Content of Aortic Arch, Esterified (WHHL rabbits [1]; mean ± standard error, control 6.5 ± 1.4, *p < 0.05): 4.5 ± 1.3 mg/g tissue | Cholesterol level of Thoracic and Abdominal Aorta, Free (WHHL rabbits [1]; mean ± standard error, control 14.8 ± 2.3, *p < 0.05 vs control): 9.2 ± 1.0 mg/g tissue | Cholesterol level of Thoracic and Abdominal Aorta, Total (WHHL rabbits [1]; mean ± standard error, control 20.1 ± 2.3, *p < 0.05, **p < 0.02 vs control): 14.0 ± 1.7 mg/g tissue | Cholesterol Content of Aortic Arch, Free (WHHL rabbits [1]; mean ± standard error, control 20.6 ± 2.9): 16.9 ± 1.8 mg/g tissue | Cholesterol Content of Aortic Arch, Total (WHHL rabbits [1]; mean ± standard error, control 27.1 ± 3.3): 21.4 ± 0.7 mg/g tissue | Cholesterol Content of Aortic Arch, Esterified, percentage against the control (WHHL rabbits [1]; number in parentheses): 69% | Cholesterol Content of Aortic Arch, Free, percentage against the control (WHHL rabbits [1]; number in parentheses): 82% | Cholesterol Content of Aortic Arch, Total, percentage against the control (WHHL rabbits [1]; number in parentheses): 79% | Cholesterol level of Thoracic and Abdominal Aorta, Esterified, percentage against the control (WHHL rabbits [1]; number in parentheses): 92% | Cholesterol level of Thoracic and Abdominal Aorta, Free, percentage against the control (WHHL rabbits [1]; number in parentheses): 62% | Cholesterol level of Thoracic and Abdominal Aorta, Total, percentage against the control (WHHL rabbits [1]; number in parentheses): 70% | Lesion Area, Aortic Arch, percentage against the control group (WHHL rabbits [2]; number in parentheses): 77% | Lesion Area, Total Aorta, percentage against the control group (WHHL rabbits [2]; number in parentheses): 76% | Lesion Area, Total Aorta (WHHL rabbits [2]; pravastatin 50, pioglitazone 20, Compound A 10 mg/kg, mean ± standard error, *p<0.05, **p<0.01 vs control): 38 ± 8% | Lesion Area, Aortic Arch (WHHL rabbits [2]; pravastatin 50, pioglitazone 20, Compound A 10 mg/kg, mean ± standard error, control 82 ± 5, *p<0.05, **p<0.01 vs control): 63 ± 9% | reduction of the serum cholesterol levels [3]: no reduction | suppression of intimal thickening (WHHL rabbits [4]; combinations compared with Groups C and D): no suppression of hypertrophy | Average thickening of intima, Aortic Arch, percentage against the control group (WHHL rabbits [4]; number in parentheses): 123% | Average thickening of intima, Total Aorta, percentage against the control group (WHHL rabbits [4]; number in parentheses): 105% | Average thickening of intima in aorta, Total Aorta (WHHL rabbits [4]; oral, eight months, pravastatin 50, pioglitazone 20, Compound A 10 mg/kg, mean ± standard error, control 154 ± 33): 162 ± 22 μm | Average thickening of intima in aorta, Aortic Arch (WHHL rabbits [4]; oral, eight months, pravastatin 50, pioglitazone 20, Compound A 10 mg/kg, mean ± standard error, control 237 ± 63): 291 ± 51 μm | Frequency of massive xanthoma (WHHL rabbits [5]; control 57, *p < 0.05, **p < 0.01 vs control): 21 | incidence of xanthoma (WHHL rabbits [5]; forelegs and hindlegs): slightly less frequent incidence of xanthoma | Distribution of severity of lesion: (-) no lesions (WHHL rabbits [5]; number of legs, control 0): 3 | Distribution of severity of lesion: (+++) severe lesion (WHHL rabbits [5]; number of legs, control 6): 0 | Distribution of severity of lesion: (++) moderate lesion (WHHL rabbits [5]; number of legs, control 10): 6 | Distribution of severity of lesion: (+) slight lesion (WHHL rabbits [5]; number of legs, control 12): 19 | Incidence of xanthoma, Forelegs (WHHL rabbits [5]; [7]): 93% | Incidence of xanthoma, Hindlegs (WHHL rabbits [5]; [7]): 86% | Incidence of xanthoma, Total (WHHL rabbits [5]; oral, eight months, control 100 (28/28), *p < 0.05, **p < 0.01 vs control): 89% | Rate of lesion area, against the control group ([6]; 2.5 mg/kg, figure in parentheses): 93 | Rate of lesion area ([6]; thoracic aorta, 2.5 mg/kg oral, two months, mean ± standard error, control 29 ± 20): 27 ± 7%
